Compound | melting point
O=c1nc(-c2ccc(O)cc2)oc2ccccc12 | 273 to 275 °C
COc1cc(F)ccc1-c1ccc(O)c(C(=O)O)c1 | 205 to 207 °C
Cc1cccc(-c2nc(C)cc(-c3ccccc3Cl)n2)n1 | 90.8 °C
C=Cc1ccc2nnn(OS(=O)(=O)c3ccc(C)cc3)c2c1 | 90 to 91 °C
COc1ccc(C2(C#Cc3ccc(NC(C)=O)cc3)CCC(=O)CC2)cc1OC1CCCC1 | 79 to 80 °C
Ic1ccc(CCN2CCOCC2)cc1 | 64 to 67 °C
Cc1nc(C)c(Cl)c(NCc2nccc(SCCCN3CCN(CC4CN(Cc5ccncc5)C(=O)O4)CC3)c2C)n1 (stereo unspecified) | 123 to 126 °C
Nc1sc2c(c1C(=O)c1cccs1)CCC(Cc1ccccc1)C2 (stereo unspecified) | 116 to 118 °C
CC(=O)NCc1cc(-c2ccccc2)c2c(n1)OCCN(Cc1cc(C(F)(F)F)cc(C(F)(F)F)c1)C2=O | 223 to 224 °C
COC(=O)CCn1nnnc1CC[C@H](NC(=O)OCc1ccccc1)C(=O)OC | 80 to 81 °C
Nc1ccc2[nH]c(-c3ccccc3)cc2c1 | 220 °C
Nc1nc2c(ncn2COC(COCc2ccccc2)COCc2ccccc2)c(=O)[nH]1 | 170 to 177 °C
COc1c(C)c(C)c2c(c1C)C(CO)C(C)(C)O2 (stereo unspecified) | 79 to 81 °C
CCCCn1c(=O)c2nn(S(=O)(=O)c3cccc4cccnc34)cc2n(CCCC)c1=O | 203 to 205 °C
CCOC(=O)c1c(C)cc2c(c1C)c(=O)n(-c1ccccc1Cl)c(=O)n2CC(N)=O | 285 to 287 °C
O=NSC1(CCOC(=O)CCC(=O)O)C2CC3CC(C2)CC1C3 (stereo unspecified) | 63 to 70 °C
COc1ccc(CNCC(O)c2ccccc2)cc1OC (stereo unspecified) | 93 to 94 °C
CCN1CCCC1CNC(=O)c1cc(S(C)(=O)=O)c(N)cc1OC (stereo unspecified) | 151 to 152 °C
CCOc1nn(-c2ccc(C(F)(F)F)cc2)cc1CCCOc1cc(CCC(=O)O)n(-c2ccccc2)n1 | 126 to 127 °C
COc1cc(/C(C#N)=C/c2ccc(C)c([N+](=O)[O-])c2)cc(OC)c1OC | 162 to 163 °C
CCC(=O)n1nc(-c2ccc(Cl)cc2)nc1C | 108 to 109 °C
CNc1cc(C)c(O)c(C)c1C | 120 to 122 °C
CCOC(=O)c1ccc2c(c1)N(C(=O)C(C)Br)c1ccccc1C=C2 (stereo unspecified) | 163 °C
O=C(Nc1ccc(C(=O)N2Cc3ccccc3Cc3cc(Cl)ccc32)cc1)c1ccc(Cl)cc1Cl | 199 to 201 °C
COc1cc(Br)cc2c(Cl)cc(C)nc12 | 140 to 142 °C
COC(=O)Cc1ccc(CNC(=O)C2Cc3ccccc3N2S(=O)(=O)c2ccc(-c3cccc(C)c3)cc2)cc1 (stereo unspecified) | 66 to 68 °C

Compound | melting point
O=C(Nc1cc(CN2CCOCC2)c(O)c(CN2CCOCC2)c1)c1ccccc1 | 152 to 154 °C
O=C(CSc1ncc(-c2ccccc2)cn1)NC1CCN(Cc2ccc(Cl)c(Cl)c2)CC1 | 157 °C
CNc1nc(C)ccc1C(=O)OCC#N | 154 to 157 °C
COc1cc(Cl)c(OC)cc1C | 90 to 92 °C
CC(C)(S)CNC(=O)c1nccnc1C(=O)O | 141 to 144 °C
O=C(c1cnc2c(n1)CCCC2)C1CCCCC1 | 63.5 to 64.5 °C
CNC(=C[N+](=O)[O-])NCCSCc1nccs1 | 103 to 104 °C
O=C(O)Cc1c(C(=O)c2ccccc2)[nH]c2ccc(Cl)c(Cl)c12 | 206 to 210 °C
CCOC(=O)c1[nH]c2ccccc2c1Br | 150 to 152 °C
Cc1cc(C(=O)NS(=O)(=O)c2ccccc2Cl)nc(Cl)n1 | 170 to 171 °C
OC1(CNCc2ccccc2)CCN(CCCc2c[nH]c3ccc(-n4cnnc4)cc23)CC1 | > 60 °C
Cc1oc(-c2ccccc2)nc1C(O)COc1ccc(CC2SC(=N)NC2=O)cc1 (stereo unspecified) | 238 to 239 °C
Clc1ccc(N2CC3CCC(C2)N3Cc2ccccc2)cc1 | 115 to 117 °C
CN(C(=O)c1ccccc1)C(=O)c1nc(Cl)c(Cl)[nH]1 | 168 °C
NC1=NC2(O)c3cc([N+](=O)[O-])ccc3CC2S1 (stereo unspecified) | > 250 °C
OCCc1ccc(OCc2ccc3ccccc3n2)cc1 | 145 °C
CC(=O)c1cc(O)c(-c2ccccc2)cc1O | 169 °C
CC=CC(=O)c1oc2c(-c3ccc(F)cc3)c(-c3ccc(S(C)(=O)=O)cc3)nn2c1C | 197 to 199 °C
CCNC(=O)Nc1ccc(-c2sc3c(c2CN(C)C(C)C)c(=O)n(-c2ccccc2)c(=O)n3Cc2c(F)cccc2F)cc1 | 208 to 210 °C
CCCc1nc(Cl)c(-c2ccc(C)cc2)c(NS(=O)(=O)c2ccc(C(C)(C)C)cc2)n1 | 138 to 139 °C
Nc1nc(-c2cc(Cl)ccc2Cl)nc(N2CCCC(O)C2)n1 (stereo unspecified) | 178 to 180 °C
Cc1cccc(NC(=O)OC(C)(C)C)c1COc1cccn2c(C=O)c(C)nc12 | 189 to 191 °C
N#Cc1c(F)nn(-c2c(Cl)cc(C(F)(F)F)cc2Cl)c1N | 193 to 194 °C
COc1ccc(NC(C)=O)cc1OCCCN1CCC(c2nsc3cc(F)ccc23)CC1 | 109 to 111 °C
CCOC(=O)COc1ccc2c(c1[N+](=O)[O-])C(=O)CC2 | 137 to 139 °C
CC(=O)NC1CCc2cc3c(cc21)CCC3 (stereo unspecified) | 257 to 259 °C

Compound | melting point
CCOC(=O)c1[nH]cc2c1NC1=C(C(=O)CCC1)C2c1ccc(Sc2nc3c(F)c(F)c(F)cc3[nH]2)o1 (stereo unspecified) | 186 °C
CN(C)CC(=O)OCc1ccc2c(c1)-c1n[nH]c(=O)c3cccc(c13)O2 | 227 to 230 °C
C[C@H](NC(=O)OC(C)(C)C)C(=O)OCCCCNc1cccc2c1C(=O)c1ccccc1C2=O | 100 °C
N#Cc1ccc(C(OCC2OC(n3ccc(=O)[nH]c3=O)CC2O)(c2ccccc2)c2ccccc2)cc1 (stereo unspecified) | 92 to 95 °C
Cc1ccc2c(-c3ccccc3)c([N+](=O)[O-])oc2c1 | 142 to 144 °C
CCc1c(C(=O)O)nn(-c2ccc(Cl)cc2Cl)c1-c1ccc(Cl)cc1 | 215 °C
CCCOCc1ccc(C#CC2(O)CN3CCC2CC3)cc1 (stereo unspecified) | 140 to 141 °C
COc1cc(C(=O)O)ccc1Cc1c(Cl)n(C)c2ccc(CC(C)NC(=O)N(C)C)cc12 (stereo unspecified) | 171 to 173 °C
COC(=O)c1cncc(OCc2nc(-c3ccccc3)oc2C)c1 | 119 to 120 °C
COc1cc(C=O)cc(OC)c1N | 94 to 96 °C
O=C(O)C[C@H](NC(=O)OCc1ccccc1)C(=O)Nc1cc(Cc2n[nH]c(=O)c3ccccc23)ccc1F | 188 to 190 °C
CCCC[C@H](CN(C=O)OCc1ccccc1)C(=O)N1CCC[C@H]1C(=O)Nc1ccc(F)cn1 | 98 °C
CN(C)Cc1c[nH]c2ccc(Br)cc12 | 139 °C
O=C(c1ccccc1)N1CCNc2ncc(I)cc21 | 164 to 166 °C
Cn1cccc1C1=C(Cl)C(=O)c2cccnc2C1=O | 168 to 169 °C
COc1ccc(CC(=O)NC(NC(=NC#N)Nc2ccccc2C)C(C)(C)C)cc1 (stereo unspecified) | 174 °C
Cc1oc2c(-c3ccc(F)cc3)c(-c3ccc(S(C)(=O)=O)cc3)nn2c1C | 158 to 160 °C
CC(C)(C)c1csc(-c2cc3cc(CO)ccc3o2)n1 | 143 to 144 °C
CCCc1cc(F)c2occ(C)c2c1O | 53 to 54 °C
CC1CCC(NC(=O)NS(=O)(=O)c2ccc(CCNC(=O)N3CCCCC3=O)cc2)C1 (stereo unspecified) | 166 to 168 °C
CCOCc1nc2c(N)nc(C)c(C)c2n1CCC1CCN(C(=O)C(C)C)CC1 | 168 to 169 °C
COc1ccc(C(NC(=O)CC2CCCC2)C2=CCc3ccccc32)c(C(=O)NS(=O)(=O)c2ccccc2C)c1 (stereo unspecified) | 227 to 228 °C
COc1ccc(Cl)cc1-n1c(N)nnc1-c1ccc(C(F)(F)F)cc1 | 247 to 248 °C
COc1ccc(-c2cnc3[nH]cc(C#N)c3n2)cc1OC | 284 to 285 °C
CN(C)C(=O)N[C@H]1CC[C@H](CCN2CCN(c3cccc4c3CCC4)CC2)CC1 | 150 to 152 °C
Cc1ccc(S(=O)(=O)OCC2CC(=O)N(Cc3ccccc3)C2c2c(Cl)cccc2Cl)cc1 (stereo unspecified) | 110 to 114 °C

Compound | melting point
CON=C(C[N+](=O)[O-])NCc1cccnc1 | 77 to 78 °C
COC(C)=CC(=O)Nc1cccc(OC(C)=O)c1 | 111 °C
O=C(O)CCCCCCCCCCCc1ccccc1 | 47 to 48 °C
COC(=O)Cn1c(=O)[nH][nH]c1=O | 215 to 218 °C
C[C@H](CSC(=O)C(C)(C)C)C(=O)N(CC(=O)OC(C)(C)C)C1CCCC1 | 58 °C
C#CC(OC(c1ccccc1)(c1ccccc1)c1ccccc1)C(C)(C)CCCC (stereo unspecified) | 75 to 77 °C
Cc1oc(COc2ccc(/C=C/CO)cc2)nc1-c1ccccc1 | 154 to 155 °C
CCN(CC)S(=O)(=O)c1ccccc1S(=O)(=O)NC(=O)Nc1nc(C)cc(OC)n1 | 170 to 172 °C
CCCCCCNC1=NS(=O)(=O)c2cc(Cl)c(Cl)cc2N1 | 282 to 286 °C
O=C1N=NC(=O)c2c1[nH]c1cc(Cl)cc(Cl)c21 | > 300 °C
CCC(CC)CNC(=O)c1ccc2cccc(Cc3ccc(C(=O)O)cc3OC)c2c1 | 198 to 199 °C
Cc1cc2oc(=O)c(NC(=O)Nc3ccc(F)cc3F)c(-c3ccccc3C)c2cc1C | 215 to 217 °C
c1coc(P(CCP(c2ccco2)c2ccco2)c2ccco2)c1 | 94 to 96 °C
COc1ccc2ccc(N3Cc4ccccc4C3OCC(=O)O)nc2n1 (stereo unspecified) | 190 °C
CCOC(=O)CC(=O)c1cc(Cl)c(F)c(Cl)c1F | 133 °C
COc1ccc2c(c1)Cc1cc(CCC(C)=O)ccc1-2 | 100 to 101 °C
CC(C)(C)C1=NN(c2ccc(S(=O)(=O)O)cc2)C(c2ccc(F)cc2)C1 (stereo unspecified) | 92.9 °C
C1=C(c2coc3ccccc23)N2CCCN=C2S1 | 128 to 130 °C
O=C(NCCCCn1cncn1)c1sc2ccccc2c1Cl | 103 to 105 °C
Cc1ccc2c(c1)C1=NNC(=O)CC1CS2 (stereo unspecified) | 217 to 219 °C
CCS(=O)(=O)NC(=O)N1CC1C#N (stereo unspecified) | 70 to 73 °C
O=C(Nc1ccc(-n2nc(C(F)(F)F)cc2C(F)(F)F)cc1)C1CCCCCC1 | 174 to 175 °C
Cc1ccc(S(=O)(=O)NC(=O)OCCc2ccc(-n3c(C(C)C)nc4c(C)nc(C)cc43)cc2)cc1 | 213 °C

Reference: a melting point compilation (Tetko et al.; mined from patent text by program, amines drawn as free bases though some values may be those of a salt)
